Assay results published in patent US5137905A, “Heterocyclic acetylenic amines having central nervous system activity” (The Upjohn Company, priority 1991, dated 1992).
Where two headings read alike, the source gives them in different places.

Legend:
[1] = target: CNS cholinergic receptor; experiment: CNS cholinergic receptor binding, oxotremorine M ligand; details: tritiated oxotremorine M; read-out: CNS Cholinergic Receptor Binding Assays K1 Oxotremorine
[2] = test system: oxotremorine-induced body tremor; experiment: Oxotremorine antagonist assay (body tremor); assay type: in vivo, mice
Procedure: Oxotremorine antagonist assays were performed on groups of six mice weighing 18-22 g. Each was dosed intraperitoneally with the test compound prepared in 0.25% methylcellulose and were placed in individual cages. Twenty minutes later the mice were injected subcutaneously with 0.5 mg/kg of oxotremorine dissolved in saline. Ten minutes later the mice were scored for body tremor. Doses of the compound under study began at 100 mg/kg and were decreased at a 0.5 log interval until no responders were obtained.

[3] = target: CNS cholinergic receptor; details: read-out: CNS Cholinergic Receptor Binding Assays K1 QNB
[4] = test system: HCl-induced writhing; experiment: HCl writhing protection (analgesic activity); assay type: in vivo, CF1 mice; details: Mus musculus, sc; ED50; s.c. in CF1 mice, 30 min before i.p. 0.15% HCl; read-out: CNS Id (ED50 mg/kg) HCl Writh. Protect
Procedure: For determination of analgesic activity, the test compound was injected subcutaneously into a group of four CF1 mice. Thirty minutes later the mice were injected i.p. with 0.15% HCl, 10 ml./kg. Mice were then placed in plastic boxes and observed for fifteen minutes to record the number of animals failing to writhe.

[5] = Mus musculus, ip; read-out: Oxot. Antagonist Tremor (ED50)
[6] = tritiated quinuclidine benzylate (QNB)
[7] = Mus musculus, ip, read-out: Oxot. Antagonist Tremor (ED50)

CC(C#CCN(C)C)n1ccn(C)c1=O (stereo not shown) [Compound 40, 1,3-Dihydro-1-methyl-3-[4-(dimethylamino)-1-methyl-2-butynyl]-2H-imidazol-2-one]
Ki [1]: 136 nM
ED50 [2, 5]: > 100 mg/kg
Ki [3, 6]: > 10000 nM

CN(C)C(=O)N1CCC[C@@H]1C#CCN1CCCC1 [Compound 51E, (R)-N,N-Dimethyl 2-[3-(1-pyrrolidinyl)-1-propynyl]-1-pyrrolidinecarboxamide]
Ki [1]: 12 nM
ED50 [2, 5]: 25 mg/kg
Ki [3, 6]: 43 nM
ED50 [4]: > 50 mg/kg

CC(=O)N1CCC[C@H]1C#CCN(C)C [Compound 51D, (S)-1-Acetyl-2-[3-(dimethylamino)-1-propynyl]pyrrolidine]
Ki [1]: 10000 nM
ED50 [2, 5]: > 100 mg/kg
Ki [3, 6]: > 10000 nM
ED50 [4]: > 50 mg/kg

Cc1cncn1CC#CCN1CCN(C)C1=O [Compound 29, 1-Methyl-3-[4-(5-methyl-1H-imidazol-1-yl)-2-butynyl]-2-imidazolidinone]
Ki [1]: 9 nM
ED50 [2, 5]: > 100 mg/kg
Ki [3, 6]: 381 nM

CC(=O)N1CCC[C@@H]1C#CCN1CCCC1 [Compound 51A, (R)-1-Acetyl-2-[3-(1-pyrrolidinyl)-1-propynyl]pyrrolidine]
ED50 [2, 5]: 3 mg/kg
Ki [3, 6]: 120 nM
ED50 [4]: > 50 mg/kg

CC(C#CCN1CCCC1)N1CCN(C)C1=O (stereo not shown) [Compound 22, 1-Methyl-3-[1-methyl-4-(1-pyrrolidinyl)-2-butynyl]-2-imidazolidinone]
ED50 [2, 7]: 37 mg/kg

CNC(=O)N1CCC[C@@H]1C#CCN1CCCC1 [Compound 51G, (R)-N-Methyl 2-[3-(1-pyrrolidinyl)-1-propynyl]-1-pyrrolidinecarboxamide]
Ki [1]: 240 nM
ED50 [2, 5]: > 100 mg/kg
Ki [3, 6]: > 10000 nM
ED50 [4]: > 50 mg/kg

CN(C)CC#CCN1CCN(C)C1=O [Compound 10, 1-[4-(1-Dimethylamino)-2-butynyl]-3-methyl-2-imidazolidinone]
Ki [1]: 4.5 nM
ED50 [2, 5]: > 10 mg/kg
Ki [3, 6]: 180 nM
ED50 [4]: > 13 mg/kg

N#CN1CCC[C@@H]1C#CCN1CCCC1 [Compound 51I, (R)-2-[3-(1-pyrrolidinyl)-1-propynyl]-1-pyrrolidinecarbonitrile]
Ki [1]: 310 nM
ED50 [2, 5]: > 30 mg/kg
Ki [3, 6]: > 10000 nM
ED50 [4]: 25 mg/kg

CN1CCN(CC#CCN2CCCC2)C1=O [Compound 1, 1-Methyl-3-[4-(1-pyrrolidinyl)-2-butynyl]-2-imidazolidinone]
Ki [1]: 2.7 nM
ED50 [2, 5]: > 3 mg/kg
Ki [3, 6]: 180 nM
ED50 [4]: 0.2 mg/kg

CCN1CCN(CC#CCN2CCCC2)C1=O [Compound 30, 1-Ethyl-3-[4-(1-pyrrolidinyl)-2-butynyl]-2-imidazolidinone]
Ki [1]: 697 nM
ED50 [2, 5]: > 30 mg/kg
Ki [3, 6]: > 10000 nM

COC(=O)N1CCC[C@@H]1C#CCN1CCCC1 [Compound 51J, (R)-Methyl 2-[3-(1-pyrrolidinyl)-1-propynyl]-1-pyrrolidinecarboxylate]
Ki [1]: 57 nM
ED50 [2, 5]: > 100 mg/kg
Ki [3, 6]: 460 nM
ED50 [4]: 11 mg/kg

CC(=O)N1CCC[C@@H]1C#CCN(C)C [Compound 51C, (R)-1-Acetyl-2-[3-(dimethylamino)-1-propynyl]pyrrolidine]
Ki [1]: 130 nM
ED50 [2, 5]: > 100 mg/kg
Ki [3, 6]: > 10000 nM
ED50 [4]: > 50 mg/kg

CCN(CC)CC#CC(C)N1CCN(C)C1=O (stereo not shown) [Compound 34, 1-[4-(Diethylamino)-1-methyl-2-butynyl]-3-methyl-2-imidazolidinone]
Ki [1]: 165 nM
ED50 [2, 5]: > 100 mg/kg
Ki [3, 6]: 1980 nM

C(#C[C@@H]1CCCN1)CN1CCCC1 [Compound 50B, (S)-1-[3-(2-pyrrolidinyl)-2-propynyl]pyrrolidine]
Ki [1]: 1300 nM
Ki [3, 6]: > 10000 nM

CN(C)CC#CCN1C(=O)CN(C)C1=O [Compound 41, 3-[4-(Dimethylamino)-2-butynyl]-1-methyl-2,4-imidazolidinedione]
Ki [1]: 86 nM
Ki [3, 6]: > 10000 nM

CC(C#CCn1ccnc1)N1CCN(C)C1=O (stereo not shown) [Compound 35, 3-[4-(1H-Imidazol-1-yl)-1-methyl-2-butynyl]-1-methyl-2-imidazolidinone]
Ki [1]: 120 nM
ED50 [2, 5]: > 100 mg/kg
Ki [3, 6]: 4010 nM

CN1C(=O)N(CC#CCN2CCCC2)CC1(C)C [Compound 13, 3,4,4-Trimethyl-1-[4-(1-pyrrolidinyl)-2-butynyl]-2-imidazolidinone]
Ki [1]: > 10000 nM
ED50 [2, 5]: > 100 mg/kg
ED50 [4]: 12.5 mg/kg

CN1CC(=O)N(CC#CCN2CCCC2)C1=O [Compound 44, 1-Methyl-3-[4-(1-pyrrolidinyl)-2-butynyl]-2,4-imidazolidinedione]
Ki [1]: 20 nM
ED50 [2, 5]: > 30 mg/kg
Ki [3, 6]: 8710 nM

CN(C)CC#CCN1CCNC1=O [Compound 33, 1-[4-(Dimethylamino)-2-butynyl]-2-imidazolidinone]
Ki [1]: 43 nM
ED50 [2, 5]: > 100 mg/kg
Ki [3, 6]: > 10000 nM

CN(C)CC#CCn1ccn(C)c1=O [Compound 37, 1,3-Dihydro-1-[4-(dimethylamino)-2-butynyl]-3-methyl-2H-imidazol-2-one]
Ki [1]: 37 nM
ED50 [2, 5]: > 100 mg/kg
Ki [3, 6]: > 10000 nM

Cn1ccn(CC#CCn2ccnc2)c1=O [Compound 6, 1,3-Dihydro-1-[4-(1H-imidazol-1-yl)-2-butynyl]-3-methyl-2H-imidazol-2-one]
Ki [1]: 35 nM
ED50 [2, 5]: > 100 mg/kg
Ki [3, 6]: > 10000 nM

CC(=O)N1CCN(CC#CCn2cncc2C)C1=O [Compound 26, 1-Acetyl-3-[4-(5-methyl-1H-imidazol-1-yl)-2-butynyl]-2-imidazolidinone]
Ki [1]: 147 nM
ED50 [2, 5]: 45 mg/kg
Ki [3, 6]: > 10000 nM

CN1CCN(CC#CCn2ccnc2)C1=O [Compound 28, 1-[4-(1H-Imidazol-1-yl)-2-butynyl]-3-methyl-2-imidazolidinone]
Ki [1]: 2 nM
ED50 [2, 7]: > 100 mg/kg
Ki [3]: 1870 nM

Cc1cncn1CC#CCn1ccn(C)c1=O [Compound 7, 1,3-Dihydro-1-methyl-3-[4-(5-methyl-1H-imidazol-1-yl)-2-butynyl]-2H-imidazol-2-one]
Ki [1]: 39 nM
ED50 [2, 5]: > 100 mg/kg
Ki [3, 6]: 614 nM

CC(C#CCN(C)C)N1CCN(C)C1=O (stereo not shown) [Compound 32, 1-[4-(Dimethylamino)-1-methyl-2-butynyl]-3-methyl-2-imidazolidinone]
Ki [1]: 33 nM
ED50 [2, 5]: > 100 mg/kg
Ki [3, 6]: > 10000 nM

O=c1[nH]ccn1CC#CCN1CCCC1 [Compound 38, 1,3-Dihydro-1-[4-(1-pyrrolidinyl)-2-butynyl]-2H-imidazol-2-one]
Ki [1]: 33 nM
ED50 [2, 5]: > 2 mg/kg
Ki [3, 6]: > 10000 nM

Cc1cncn1CC#CCN1CCNC1=O [Compound 27, 1-[4-(5-Methyl-1H-imidazol-1-yl)-2-butynyl]-2-imidazolidinone]
Ki [1]: 138 nM
ED50 [2, 5]: > 100 mg/kg
Ki [3, 6]: > 10000 nM

CC(C#CCN1CCCC1)N1CCNC1=O (stereo not shown) [Compound 31, 1-[1-Methyl-4-(1-pyrrolidinyl)-2-butynyl]-2-imidazolidinone]
Ki [1]: 15 nM
ED50 [2, 5]: > 30 mg/kg
Ki [3, 6]: 135 nM

CC(=O)N1CCC[C@H]1C#CCN1CCCC1 [Compound 51B, (S)-1-Acetyl-2-[3-(1-pyrrolidinyl)-1-propynyl]pyrrolidine]
Ki [1]: 370 nM
ED50 [2, 5]: > 30 mg/kg
Ki [3, 6]: 2300 nM

CCN(CC)CC#CCN1CCNC1=O [Compound 23, 1-[4-(Diethylamino)-2-butynyl]-2-imidazolidinone]
Ki [1]: 425 nM
ED50 [2, 5]: > 100 mg/kg
Ki [3, 6]: > 10000 nM

CC1(C)CN(CC#CCN2CCCC2)C(=O)N1 [Compound 12, 4,4-Dimethyl-1-[4-(1-pyrrolidinyl)-2-butynyl]-2-imidazolidinone]
Ki [1]: 820 nM
ED50 [2, 5]: > 100 mg/kg
ED50 [4]: > 50 mg/kg

C(#C[C@H]1CCCN1)CN1CCCC1 [Compound 50A, (R)-1-[3-(2-pyrrolidinyl)-2-propynyl]pyrrolidine]
Ki [1]: 260 nM
ED50 [2, 5]: > 100 mg/kg
Ki [3, 6]: 4800 nM

CCN(CC)CC#CCn1ccn(C)c1=O [Compound 4, 1-[4-(Diethylamino)-2-butynyl]-1,3-dihydro-3-methyl-2H-imidazol-2-one]
Ki [1]: 563 nM
ED50 [2, 5]: > 100 mg/kg
Ki [3, 6]: > 10000 nM

CN1CCCN(CC#CCN2CCCC2)C1=O [Compound 42, Tetrahydro-1-methyl-3-[4-(1-pyrrolidinyl)-2-butynyl]-2(1H)-pyrimidinone]
Ki [1]: 229 nM
ED50 [2, 5]: > 30 mg/kg
Ki [3, 6]: 1580 nM

CN1C(=O)CN(CC#CCN2CCCC2)C1=O [Compound 43, 3-Methyl-1-[4-(1-pyrrolidinyl)-2-butynyl]-2,4-imidazolidinedione]
Ki [1]: 364 nM
ED50 [2, 5]: > 100 mg/kg
Ki [3, 6]: > 10000 nM

O=C1NCCN1CC#CCn1ccnc1 [Compound 25, 1-[4-(1H-Imidazol-1-yl)-2-butynyl]-2-imidazolidinone]
Ki [1]: 62 nM
ED50 [2, 5]: > 100 mg/kg
Ki [3, 6]: > 10000 nM

CCN(CC)CC#CCN1CCN(C)C1=O [Compound 24, 1-[4-(Diethylamino)-2-butynyl]-3-methyl-2-imidazolidinone]
Ki [1]: 132 nM
ED50 [2, 5]: > 100 mg/kg
Ki [3, 6]: > 10000 nM

CC(C#CCN1CCCC1)n1ccn(C)c1=O (stereo not shown) [Compound 39, 1,3-Dihydro-1-methyl-3-[1-methyl-4-(1-pyrrolidinyl)-2-butynyl]-2H-imidazol-2-one]
Ki [1]: 9 nM
ED50 [2, 5]: > 30 mg/kg
Ki [3, 6]: 88 nM
